The values below come from patent US7709484B1, “Substituted melanocortin receptor-specific piperazine compounds” (Palatin Technologies, Inc., priority 2004, dated 2010).

Experiment [1] addresses T1, B-16 mouse melanoma cells (containing MC1-R) (Mus musculus, UniProt Q01727).
T1 construct: B-16 mouse melanoma cells (containing MC1-R); endogenous in cells; host or cells: B-16 mouse melanoma cells
Briefly: Competitive inhibition binding assay, 125I-NDP-α-MSH, B-16 mouse melanoma cell membranes. As to conditions: 1 μM test compound; 0.4 nM 125I-NDP-α-MSH; mean of triplicate; results less than 0% reported as 0%; read-out: Inhibition at 1 μM MC1-R (murine). The method, then: (§1) Competitive inhibition assay. A competitive inhibition binding assay was conducted using membranes prepared from hMC1-R or B-16 mouse melanoma cells (containing MC1-R), hMC3-R, hMC4-R, and hMC5-R, and using 0.4 nM ^125I-NDP-α-MSH (New England Nuclear, Boston, Mass., USA) in 50 mM HEPES buffer containing 1 mM MgCl2, 2 mM CaCl2, and 5 mM KCl, at pH 7.2. The assay tube also contained a chosen concentration of the test compound of this invention, typically a 1 μM concentration, for determining its efficacy in inhibiting the binding of ^125I-NDP-α-MSH to its receptor. Non-specific binding was measured by complete inhibition of binding of ^125I-NDP-α-MSH in the assay with the presence of 1 μM α-MSH.
(§2) Incubation was for 90 minutes at room temperature, after which the assay mixture was filtered and the membranes washed three times with ice cold buffer. The filter was dried and counted in a gamma counter for remaining radioactivity bound to the membranes. 100% specific binding was defined as the difference in radioactivity (cpm) bound to cell membranes in the absence and presence of 1 μM α-MSH. The cpm obtained in the presence of test compounds are normalized with respect to 100% specific binding to determine the percent inhibition of ^125I-NDP-a-MSH binding. Each assay was conducted in triplicate and the actual mean values are described, with results less than 0% reported as 0%.

In another experiment the target is hMC3-R (Homo sapiens, UniProt P41968). Briefly: Competitive inhibition binding assay, 125I-NDP-α-MSH, hMC3-R membranes. The note with it: 1 μM test compound; 0.4 nM 125I-NDP-α-MSH; mean of triplicate; results less than 0% reported as 0%; read-out: Inhibition at 1 μM MC3-R. On the procedure: as §1, §2
The target in another experiment is hMC4-R (Homo sapiens, UniProt P32245). Briefly: Competitive inhibition binding assay, 125I-NDP-α-MSH, hMC4-R membranes. As to conditions: 1 μM test compound; 0.4 nM 125I-NDP-α-MSH; mean of triplicate; results less than 0% reported as 0%; read-out: Inhibition at 1 μM MC4-R. On the procedure: as §1, §2
Another experiment has as its target hMC5-R (Homo sapiens, UniProt P33032). Briefly: Competitive inhibition binding assay, 125I-NDP-α-MSH, hMC5-R membranes. As to conditions: 1 μM test compound; 0.4 nM 125I-NDP-α-MSH; mean of triplicate; results less than 0% reported as 0%; read-out: Inhibition at 1 μM MC5-R. On the procedure: as §1, §2

T1 sequence (Q01727 whole entry): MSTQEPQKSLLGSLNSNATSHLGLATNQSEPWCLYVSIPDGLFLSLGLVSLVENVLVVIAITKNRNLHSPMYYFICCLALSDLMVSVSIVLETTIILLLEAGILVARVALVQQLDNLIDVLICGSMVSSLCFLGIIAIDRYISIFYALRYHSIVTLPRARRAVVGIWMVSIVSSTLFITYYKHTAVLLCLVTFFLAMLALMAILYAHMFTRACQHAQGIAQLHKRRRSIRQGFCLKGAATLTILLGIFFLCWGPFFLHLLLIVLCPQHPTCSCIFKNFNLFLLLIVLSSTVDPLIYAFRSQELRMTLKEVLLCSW
Sequence of hMC4-R (P32245 whole entry): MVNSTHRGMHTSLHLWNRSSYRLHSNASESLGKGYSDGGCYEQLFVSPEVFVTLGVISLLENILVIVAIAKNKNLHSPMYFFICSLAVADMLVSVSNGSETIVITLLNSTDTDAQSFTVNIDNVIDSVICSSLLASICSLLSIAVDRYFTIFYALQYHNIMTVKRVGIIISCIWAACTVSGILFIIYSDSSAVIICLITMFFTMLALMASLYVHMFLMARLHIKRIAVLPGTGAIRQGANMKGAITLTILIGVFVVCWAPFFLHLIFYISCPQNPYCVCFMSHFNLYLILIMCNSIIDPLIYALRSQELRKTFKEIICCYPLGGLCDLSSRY
Sequence of hMC5-R (P33032 whole entry): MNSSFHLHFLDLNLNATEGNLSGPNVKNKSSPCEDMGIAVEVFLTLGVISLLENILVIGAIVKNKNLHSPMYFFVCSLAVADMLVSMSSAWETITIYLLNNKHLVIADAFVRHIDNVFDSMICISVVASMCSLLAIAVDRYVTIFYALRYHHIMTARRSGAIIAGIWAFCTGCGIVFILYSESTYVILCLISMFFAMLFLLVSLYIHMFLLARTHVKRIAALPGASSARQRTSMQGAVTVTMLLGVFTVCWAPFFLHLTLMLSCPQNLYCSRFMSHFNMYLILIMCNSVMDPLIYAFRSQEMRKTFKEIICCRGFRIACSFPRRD
Sequence of hMC3-R (P41968 whole entry): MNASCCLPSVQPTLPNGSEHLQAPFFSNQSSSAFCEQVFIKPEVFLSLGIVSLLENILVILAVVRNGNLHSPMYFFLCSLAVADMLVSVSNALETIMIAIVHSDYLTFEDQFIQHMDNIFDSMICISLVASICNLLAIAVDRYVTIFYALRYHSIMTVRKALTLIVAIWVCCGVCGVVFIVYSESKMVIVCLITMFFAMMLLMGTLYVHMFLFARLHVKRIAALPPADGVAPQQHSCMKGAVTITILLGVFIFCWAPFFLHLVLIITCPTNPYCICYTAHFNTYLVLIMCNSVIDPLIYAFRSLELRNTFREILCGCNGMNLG

The inhibition is the drop in the measured response relative to a control, in per cent. Consider `CC(=O)Oc1ccccc1C(=O)N[C@H](Cc1ccc(Cl)cc1)C(=O)N1CCN[C@H](Cc2ccc3ccccc3c2)C1` [Example 27], for which the inhibition at 1 µM in experiment [1] was 10%; on hMC3-R it was 0%; at hMC4-R, 4%; at hMC5-R, 0%.
For the compound `N[C@H](Cc1ccccc1Cl)C(=O)N1CCN[C@H](Cc2ccc3ccccc3c2)C1` [Example 11, (R)-2-Amino-3-(2-chloro-phenyl)-1-((R)-3-naphthalen-2-ylmethyl-piperazin-1-yl)-propan-1-one], the inhibition at 1 µM in experiment [1] stood at 4%; on hMC3-R it was 19%; on hMC4-R it was 9%; at hMC5-R, 0%.
`N[C@@H](Cc1c[nH]cn1)C(=O)N[C@H](Cc1ccccc1Cl)C(=O)N1CCN[C@H](Cc2ccc3ccccc3c2)C1` [Example 12, (S)-2-Amino-N—[(R)-1-(2-chloro-benzyl)-2-((R)-3-naphthalen-2-ylmethyl-piperazin-1-yl)-2-oxo-ethyl]-3-(1H-imidazol-4-yl)-propionamide]: the inhibition at 1 µM in experiment [1] amounted to 52%; at hMC3-R, 18%; at hMC4-R, 0%; on hMC5-R it was 12%.
For `N[C@H](Cc1ccccc1)C(=O)N1C[C@@H](Cc2ccccc2)NC[C@@H]1Cc1ccccc1` [Example 17, (R)-2-Amino-1-((2S,5R)-2,5-dibenzyl-piperazin-1-yl)-3-phenyl-propan-1-One], the inhibition at 1 µM in experiment [1] is 0%; on hMC3-R it was 0%; at hMC4-R, 6%; on hMC5-R, 3%.
As to `Cc1ccc(S(=O)(=O)N[C@H](Cc2ccc(Cl)cc2)C(=O)N2CCN[C@H](Cc3ccc4ccccc4c3)C2)cc1` [Example 26, N—[(R)-1-(4-Chloro-benzyl)-2-((R)-3-naphthalen-2-ylmethyl-piperazin-1-yl)-2-oxo-ethyl]-4-methyl-benzenesulfonamide], the inhibition at 1 µM in experiment [1] is 10%; at hMC3-R, 14%; on hMC4-R it was 22%; at hMC5-R, 20%.
In the case of `N[C@H](Cc1ccc(Cl)cc1Cl)C(=O)N1C[C@H](Cc2ccccc2)NC[C@H]1Cc1ccccc1` [Example 10, (R)-2-Amino-1-((2R,5S)-2,5-dibenzyl-piperazin-1-yl)-3-(2,4-dichloro-phenyl)-propan-1-one], the inhibition at 1 µM in experiment [1] came to 0%; on hMC3-R, 0%; at hMC4-R, 13%; on hMC5-R, 0%.
For the compound `O=C(CCCc1ccccc1)N[C@H](Cc1ccc(Cl)cc1)C(=O)N1CCN[C@H](Cc2ccc3ccccc3c2)C1` [Example 24, N—[(R)-1-(4-Chloro-benzyl)-2-((R)-3-naphthalen-2-ylmethyl-piperazin-1-yl)-2-oxo-ethyl]-4-phenyl-butyramide], the inhibition at 1 µM was found to be 5% in experiment [1], 3% at hMC3-R, 20% on hMC4-R and 13% at hMC5-R.
As to `N[C@H](Cc1ccc(Cl)cc1)C(=O)N1CCN[C@H](Cc2ccc3ccccc3c2)C1` [Example 19, (R)-2-Amino-3-(4-chloro-phenyl)-1-((R)-3-naphthalen-2-ylmethyl-piperazin-1-yl)-propan-1-one], the inhibition at 1 µM was 5% in experiment [1], 0% on hMC3-R, 21% on hMC4-R and 0% on hMC5-R.
As for `N[C@H](Cc1ccc2ccccc2c1)C(=O)N1C[C@H](Cc2ccccc2)NC[C@H]1Cc1ccccc1` [Example 8, (R)-2-Amino-1-((2R,5S)-2,5-dibenzyl-piperazin-1-yl)-3-naphthalen-2-yl-propan-1-one], the inhibition at 1 µM in experiment [1] is 0%; at hMC3-R, 0%; at hMC4-R, 0%; on hMC5-R, 10%.
Regarding `O=C(Cc1ccccc1)N[C@H](Cc1ccc(Cl)cc1)C(=O)N1CCN[C@H](Cc2ccc3ccccc3c2)C1` [Example 25, N—[(R)-1-(4-Chloro-benzyl)-2-((R)-3-naphthalen-2-ylmethyl-piperazin-1-yl)-2-oxo-ethyl]-2-phenyl-acetamide], the inhibition at 1 µM stood at 5% in experiment [1], 6% on hMC3-R, 19% on hMC4-R and 18% on hMC5-R.
In the case of `N[C@H](Cc1ccc2ccccc2c1)C(=O)N1C[C@@H](Cc2ccccc2)NC[C@@H]1Cc1ccccc1` [Example 15, (R)-2-Amino-1-((2S,5R)-2,5-dibenzyl-piperazin-1-yl)-3-naphthalen-2-yl-propan-1-one], the inhibition at 1 µM is 0% in experiment [1], 0% on hMC3-R, 18% at hMC4-R and 3% at hMC5-R.
With `N[C@H](Cc1ccc(Cl)cc1Cl)C(=O)N1C[C@@H](Cc2ccccc2)NC[C@@H]1Cc1ccccc1` [Example 16, (R)-2-Amino-1-((2S,5R)-2,5-dibenzyl-piperazin-1-yl)-3-(2,4-dichloro-phenyl)-propan-1-one], the inhibition at 1 µM in experiment [1] amounted to 0%; at hMC3-R, 0%; at hMC4-R, 14%; at hMC5-R it was 0%.
For the compound `N[C@@H](Cc1ccccc1)C(=O)N1C[C@H](Cc2ccccc2)NC[C@H]1Cc1ccccc1` [Example 9, (S)-2-Amino-1-((2R,5S)-2,5-dibenzyl-piperazin-1-yl)-3-phenyl-propan-1-one], the inhibition at 1 µM (in experiment [1]; on hMC3-R; at hMC4-R; on hMC5-R) was 0% each time.
Take `CC(=O)N[C@H](Cc1ccc(Cl)cc1)C(=O)N1CCN[C@H](Cc2ccc3ccccc3c2)C1` [Example 23, N—[(R)-1-(4-Chloro-benzyl)-2-((R)-3-naphthalen-2-ylmethyl-piperazin-1-yl)-2-oxo-ethyl]-acetamide]: the inhibition at 1 µM was determined as 6% in experiment [1], 0% at hMC3-R, 13% on hMC4-R and 4% at hMC5-R.
For `N[C@@H](Cc1ccccc1)C(=O)N1C[C@@H](Cc2ccccc2)NC[C@@H]1Cc1ccccc1` [Example 18, (S)-2-Amino-1-((2S,5R)-2,5-dibenzyl-piperazin-1-yl)-3-phenyl-propan-1-one] the same measures were 0%, 0%, 8% and 12%.
As to `O=C(N[C@H](Cc1ccc(Cl)cc1)C(=O)N1CCN[C@H](Cc2ccc3ccccc3c2)C1)[C@H]1Cc2ccccc2CN1` [Example 21, (R)-1,2,3,4-Tetrahydro-isoquinoline-3-carboxylic acid [(R)-1-(4-chloro-benzyl)-2-((R)-3-naphthalen-2-ylmethyl-piperazin-1-yl)-2-oxo-ethyl]-amide], the inhibition at 1 µM in experiment [1] worked out at 6%; on hMC3-R, 26%; at hMC4-R, 30%; at hMC5-R it was 14%.
As for `N[C@@H](COCc1ccccc1)C(=O)N[C@H](Cc1ccccc1Cl)C(=O)N1CCN[C@H](Cc2ccc3ccccc3c2)C1` [Example 14, (S)-2-Amino-3-benzyloxy-N—[(R)-1-(2-chloro-benzyl)-2-((R)-3-naphthalen-2-ylmethyl-piperazin-1-yl)-2-oxo-ethyl]-propionamide], the inhibition at 1 µM in experiment [1] was determined as 46%; on hMC3-R, 33%; on hMC4-R, 56%; on hMC5-R it was 23%.
In the case of `N[C@@H](COCc1ccccc1)C(=O)N[C@H](Cc1ccc(Cl)cc1)C(=O)N1CCN[C@H](Cc2ccc3ccccc3c2)C1` [Example 22, (S)-2-Amino-3-benzyloxy-N—[(R)-1-(4-chloro-benzyl)-2-((R)-3-naphthalen-2-ylmethyl-piperazin-1-yl)-2-oxo-ethyl]-propionamide], the inhibition at 1 µM worked out at 2% in experiment [1], 54% on hMC3-R, 36% at hMC4-R and 27% at hMC5-R.
In the case of `CCCC(CCC)C(=O)N[C@H](Cc1ccc(Cl)cc1)C(=O)N1CCN[C@H](Cc2ccc3ccccc3c2)C1` [Example 28, 2-Propyl-pentanoic acid [(R)-1-(4-chloro-benzyl)-2-((R)-3-naphthalen-2-ylmethyl-piperazin-1-yl)-2-oxo-ethyl]-amide], the inhibition at 1 µM in experiment [1] was 0%; on hMC3-R, 0%; on hMC4-R, 38%; at hMC5-R, -4%.
